The values that follow come from US20260048047A1, “SMALL-MOLECULE ACTIVATORS OF MYCOBACTERIUM TUBERCULOSIS ADENYLYL CYCLASE” (priority 2022, published 2026).

Each structure is given as a SMILES string. Read-outs that look alike come from different tables or passages of the source.

The test system of the test is M. tuberculosis. The experiment in a line: Extracellular activity against M. tuberculosis in cholesterol media (Alamar Blue reduction assay). The class given is cell-based, Mycobacterium tuberculosis. To be noted: 7H12-Cholesterol media, 10 days, read-out: Cholesterol broth: alamar blue--EC50.
Where [1] appears, read: Mycobacterium tuberculosis, 240 h.

As usually defined, the EC50 is the concentration at which the effect is half-maximal.

`O=C(Cc1cc(=O)[nH]c(=O)[nH]1)N1CCC(c2nc(-c3ccc(F)cc3)no2)CC1` [Compound 1, 6-(2-(4-(3-(4-fluorophenyl)-1,2,4-oxadiazol-5-yl)piperidin-1-yl)-2-oxoethyl)pyrimidine-2,4(1H,3H)-dione]: the EC50 under setting [1] came out at 784 nM.

For the compound `O=C(Cc1cnccn1)N1CCC(n2nnc(-c3ccc(F)cc3)n2)CC1` [Compound 2, 1-(4-(5-(4-fluorophenyl)-2H-tetrazol-2-yl)piperidin-1-yl)-2-(pyrazin-2-yl)ethan-1-one], the EC50 is above 10000 nM.

For `O=c1cc(CN2CCC(c3nc(-c4ccc(Cl)c(Cl)c4)no3)CC2)[nH]c(=O)[nH]1` [Compound 3, 6-((4-(3-(3,4-dichlorophenyl)-1,2,4-oxadiazol-5-yl)piperidin-1-yl)methyl)pyrimidine-2,4(1H,3H)-dione], the concentration giving a half-maximal response (EC50) under setting [1] was 179 nM.

`O=C(Cc1cnccn1)N1CCC(n2nnc(-c3ccc(F)cc3)n2)CC1` [Compound 4, 1-(4-(5-(4-fluorophenyl)-2H-tetrazol-2-yl)piperidin-1-yl)-2-(pyrazin-2-yl)ethan-1-one]: the EC50 was 122 nM.

Turning to `CC(C)c1noc(CC(=O)N2CCC(c3nc(-c4ccc(Cl)c(Cl)c4)no3)CC2)n1` [Compound 5, 1-(4-(3-(3,4-dichlorophenyl)-1,2,4-oxadiazol-5-yl)piperidin-1-yl)-2-(3-isopropyl-1,2,4-oxadiazol-5-yl)ethan-1-one], under setting [1], the EC50 is 1430 nM.

Take `CC(C)c1noc(CC(=O)N2CCC(c3nc(-c4ccc(F)cc4)no3)CC2)n1` [Compound 6, 1-(4-(3-(4-fluorophenyl)-1,2,4-oxadiazol-5-yl)piperidin-1-yl)-2-(3-isopropyl-1,2,4-oxadiazol-5-yl)ethan-1-one]: under setting [1], the EC50 is 2980 nM.

`Cc1cncnc1CC(=O)N1CCC(c2nc(C3CCCCC3)no2)CC1` [Compound 7, 1-(4-(3-cyclohexyl-1,2,4-oxadiazol-5-yl)piperidin-1-yl)-2-(5-methylpyrimidin-4-yl)ethan-1-one]: under setting [1], the EC50 is above 25000 nM.

On to `Cc1cncnc1CC(=O)N1CCC(c2nc(-c3ccc(Cl)c(Cl)c3)no2)CC1` [Compound 8, 1-(4-(3-(3,4-dichlorophenyl)-1,2,4-oxadiazol-5-yl)piperidin-1-yl)-2-(5-methylpyrimidin-4-yl)ethan-1-one], for which the EC50 under setting [1] turned out to be 479 nM.

`Cc1cncnc1CC(=O)N1CCC(c2nc(-c3ccc(F)cc3)no2)CC1` [Compound 9, 1-(4-(3-(4-fluorophenyl)-1,2,4-oxadiazol-5-yl)piperidin-1-yl)-2-(5-methylpyrimidin-4-yl)ethan-1-one]: the EC50 under setting [1] came out at 3680 nM.

With `Cc1conc1CC(=O)N1CCC(c2nc(-c3ccc(Cl)c(Cl)c3)no2)CC1` [Compound 10, 1-(4-(3-(3,4-dichlorophenyl)-1,2,4-oxadiazol-5-yl)piperidin-1-yl)-2-(4-methylisoxazol-3-yl)ethan-1-one], under setting [1], the EC50 is 284 nM.

For `Cc1conc1CC(=O)N1CCC(c2nc(-c3ccc(F)cc3)no2)CC1` [Compound 11, 1-(4-(3-(4-fluorophenyl)-1,2,4-oxadiazol-5-yl)piperidin-1-yl)-2-(4-methylisoxazol-3-yl)ethan-1-one], the EC50 under setting [1] was found to be 1430 nM.

Regarding `Cc1nc(CC(=O)N2CCC(c3nc(-c4ccc(F)cc4)no3)CC2)no1` [Compound 12, 1-(4-(3-(4-fluorophenyl)-1,2,4-oxadiazol-5-yl)piperidin-1-yl)-2-(5-methyl-1,2,4-oxadiazol-3-yl)ethan-1-one], the EC50 under setting [1] was above 10000 nM.

As for `Cc1nccnc1CC(=O)N1CCC(c2nc(C3CCCCC3)no2)CC1` [Compound 13, 1-(4-(3-cyclohexyl-1,2,4-oxadiazol-5-yl)piperidin-1-yl)-2-(3-methylpyrazin-2-yl)ethan-1-one], under setting [1], the EC50 is above 25000 nM.

Turning to `Cc1nccnc1CC(=O)N1CCC(c2nc(-c3ccc(Cl)c(Cl)c3)no2)CC1` [Compound 14, 1-(4-(3-(3,4-dichlorophenyl)-1,2,4-oxadiazol-5-yl)piperidin-1-yl)-2-(3-methylpyrazin-2-yl)ethan-1-one], under setting [1], the EC50 stood at 8320 nM.

Regarding `Cc1nccnc1CC(=O)N1CCC(c2nc(-c3ccc(F)cc3)no2)CC1` [Compound 15, 1-(4-(3-(4-fluorophenyl)-1,2,4-oxadiazol-5-yl)piperidin-1-yl)-2-(3-methylpyrazin-2-yl)ethan-1-one], under setting [1], the EC50 worked out at 1220 nM.

`Cc1nnn(CC(=O)N2CCC(c3nc(-c4ccc(Cl)c(F)c4)no3)CC2)n1` [Compound 16, 1-(4-(3-(4-chloro-3-fluorophenyl)-1,2,4-oxadiazol-5-yl)piperidin-1-yl)-2-(5-methyl-2H-tetrazol-2-yl)ethan-1-one]: the EC50 under setting [1] was found to be 790 nM.

Consider `Cc1nnnn1CC(=O)N1CCC(c2nc(-c3ccc(Cl)c(F)c3)no2)CC1` [Compound 17, 1-(4-(3-(4-chloro-3-fluorophenyl)-1,2,4-oxadiazol-5-yl)piperidin-1-yl)-2-(5-methyl-1H-tetrazol-1-yl)ethan-1-one], for which the EC50 under setting [1] is 160 nM.

`Cc1noc(CC(=O)N2CCC(c3nc(C4CC5CCC4C5)no3)CC2)n1` (stereo not shown) [Compound 18, 1-(4-(3-(bicyclo[2.2.1]heptan-2-yl)-1,2,4-oxadiazol-5-yl)piperidin-1-yl)-2-(3-methyl-1,2,4-oxadiazol-5-yl)ethan-1-one]: the EC50 under setting [1] is above 10000 nM.

`Cc1noc(CC(=O)N2CCC(c3nc(C4CCC5(CC4)OCCO5)no3)CC2)n1` [Compound 19, 1-(4-(3-(1,4-dioxaspiro[4.5]decan-8-yl)-1,2,4-oxadiazol-5-yl)piperidin-1-yl)-2-(3-methyl-1,2,4-oxadiazol-5-yl)ethan-1-one]: the EC50 under setting [1] is above 10000 nM.

Regarding `Cc1noc(CC(=O)N2CCC(c3nc(C4CCCC4)no3)CC2)n1` [Compound 20, 1-(4-(3-cyclopentyl-1,2,4-oxadiazol-5-yl)piperidin-1-yl)-2-(3-methyl-1,2,4-oxadiazol-5-yl)ethan-1-one], the EC50 under setting [1] was above 25000 nM.

In the case of `Cc1noc(CC(=O)N2CCC(n3nnc(C4CCCC4)n3)CC2)n1` [Compound 21, 1-(4-(5-cyclopentyl-2H-tetrazol-2-yl)piperidin-1-yl)-2-(3-methyl-1,2,4-oxadiazol-5-yl)ethan-1-one], the EC50 under setting [1] was 7350 nM.

In the case of `Cc1noc(CC(=O)N2CCC(c3nc(C4CCCC5CC54)no3)CC2)n1` (stereo not shown) [Compound 22, 1-(4-(3-(bicyclo[4.1.0]heptan-2-yl)-1,2,4-oxadiazol-5-yl)piperidin-1-yl)-2-(3-methyl-1,2,4-oxadiazol-5-yl)ethan-1-one], under setting [1], the EC50 was determined as 890 nM.

On to `Cc1noc(CC(=O)N2CCC(c3nc(C4CCCCC4)no3)CC2)n1` [Compound 23, 1-(4-(3-cyclohexyl-1,2,4-oxadiazol-5-yl)piperidin-1-yl)-2-(3-methyl-1,2,4-oxadiazol-5-yl)ethan-1-one], for which the EC50 under setting [1] was above 10000 nM.

In the case of `Cc1noc(CC(=O)N2CCC(n3nnc(C4CCCCC4)n3)CC2)n1` [Compound 24, 1-(4-(5-cyclohexyl-2H-tetrazol-2-yl)piperidin-1-yl)-2-(3-methyl-1,2,4-oxadiazol-5-yl)ethan-1-one], the EC50 under setting [1] was above 25000 nM.

Turning to `Cc1noc(CC(=O)N2CCC(O)(c3nc(C4CCCCC4)no3)CC2)n1` [Compound 25, 1-(4-(3-cyclohexyl-1,2,4-oxadiazol-5-yl)-4-hydroxypiperidin-1-yl)-2-(3-methyl-1,2,4-oxadiazol-5-yl)ethan-1-one], the EC50 under setting [1] is above 10000 nM.

Take `Cc1noc(CC(=O)N2CCC(c3nc(C45CCC(CC4)C5)no3)CC2)n1` [Compound 26, 1-(4-(3-(bicyclo[2.2.1]heptan-1-yl)-1,2,4-oxadiazol-5-yl)piperidin-1-yl)-2-(3-methyl-1,2,4-oxadiazol-5-yl)ethan-1-one]: the EC50 under setting [1] is above 25000 nM.

Regarding `Cc1noc(CC(=O)N2CCC(c3nc(C4(C)CCCCC4)no3)CC2)n1` [Compound 27, 2-(3-methyl-1,2,4-oxadiazol-5-yl)-1-(4-(3-(1-methylcyclohexyl)-1,2,4-oxadiazol-5-yl)piperidin-1-yl)ethan-1-one], the EC50 under setting [1] was above 25000 nM.

As to `Cc1noc(CC(=O)N2CCC(c3nc(C4CC4(C)C)no3)CC2)n1` (stereo not shown) [Compound 28, 1-(4-(3-(2,2-dimethylcyclopropyl)-1,2,4-oxadiazol-5-yl)piperidin-1-yl)-2-(3-methyl-1,2,4-oxadiazol-5-yl)ethan-1-one], under setting [1], the EC50 is above 25000 nM.

`Cc1noc(CC(=O)N2CCC(c3nc(C4CCC(C)(C)C4)no3)CC2)n1` (stereo not shown) [Compound 29, 1-(4-(3-(3,3-dimethylcyclopentyl)-1,2,4-oxadiazol-5-yl)piperidin-1-yl)-2-(3-methyl-1,2,4-oxadiazol-5-yl)ethan-1-one]: under setting [1], the EC50 was 3730 nM.

For the compound `Cc1noc(CC(=O)N2CCC(c3nc(C4CCC(C)(C)CC4)no3)CC2)n1` [Compound 30, 1-(4-(3-(4,4-dimethylcyclohexyl)-1,2,4-oxadiazol-5-yl)piperidin-1-yl)-2-(3-methyl-1,2,4-oxadiazol-5-yl)ethan-1-one], the EC50 under setting [1] was 1140 nM.

For the compound `Cc1noc(CC(=O)N2CCC(c3nc(C4C[C@@H](C)C[C@@H](C)C4)no3)CC2)n1` (stereo partly drawn) [Compound 31, 1-(4-(3-((3R,5S)-3,5-dimethylcyclohexyl)-1,2,4-oxadiazol-5-yl)piperidin-1-yl)-2-(3-methyl-1,2,4-oxadiazol-5-yl)ethan-1-one], the EC50 under setting [1] was above 25000 nM.

For `Cc1noc(CC(=O)N2CCC(c3nc(-c4ccc(Cl)cc4Cl)no3)CC2)n1` [Compound 32, 1-(4-(3-(2,4-dichlorophenyl)-1,2,4-oxadiazol-5-yl)piperidin-1-yl)-2-(3-methyl-1,2,4-oxadiazol-5-yl)ethan-1-one], the EC50 under setting [1] was 718 nM.

With `Cc1noc(CC(=O)N2CCC(c3nc(-c4ccc(Cl)c(Cl)c4)no3)CC2)n1` [Compound 33, 1-(4-(3-(3,4-dichlorophenyl)-1,2,4-oxadiazol-5-yl)piperidin-1-yl)-2-(3-methyl-1,2,4-oxadiazol-5-yl)ethan-1-one], under setting [1], the EC50 turned out to be 140 nM.

With `Cc1noc(CC(=O)N2CCC(c3nc(-c4ccc(Cl)cc4)no3)CC2)n1` [Compound 34, 1-(4-(3-(4-chlorophenyl)-1,2,4-oxadiazol-5-yl)piperidin-1-yl)-2-(3-methyl-1,2,4-oxadiazol-5-yl)ethan-1-one], the EC50 under setting [1] came to 399 nM.
